“Also recorded” adds a separate entry of the source.
Key:
Assay type in all cases: physicochemical
[1] = Dynamic vapor sorption (DVS) hygroscopicity, with XRPD before and after DVS; conditions: for crystalline state after DVS (XRPD): humidity cycle 0%-95%-0% RH; for weight gain from 0% to 70% RH: 25° C., cycle of 0%-95%-0% RH
Method: Dynamic Vapor Sorption (DVS) was measured via an SMS (Surface Measurement Systems Ltd.) intrinsic DVS instrument. The instrument control software is DVS-Intrinsic control software. Typical Parameters for DVS test are as follows: • Temperature: 25° C. • Gas and flow rate: N2, 200 mL/min • RH range: 0% RH to 95% RH Dynamic vapor sorption (DVS) analyzer was applied to evaluate the hygroscopicity of amorphous with a certain amount of sample obtained by Example 6. The weight gains at each relative humidity were recorded in a cycle of 0%-95%-0% RH. […] Dynamic vapor sorption (DVS) analyzer was applied to evaluate hygroscopicity of Form CSV with a certain amount of sample. The weight gains at each relative humidity were recorded in a cycle of 0%-95%-0% RH. Dynamic vapor sorption (DVS) analyzer was applied to evaluate hygroscopicity of Form CSIII with a certain amount of sample. The weight gains at each relative humidity were recorded in a cycle of 0%-95%-0% RH. The XRPD patterns of Form CSIII before and after DVS test are shown in FIG. 13 and the DVS curve of Form CSIII is shown in FIG. 13.

[2] = Physical and chemical stability on storage (XRPD, HPLC); conditions: for chemical purity during storage: HPLC; for Form after storage: XRPD
Method: A certain amount of Form CSV of the present disclosure was stored under different conditions of 40° C./75% RH and 60° C./75% RH. Crystalline form and chemical purity were checked by XRPD and HPLC, respectively. Open packaged: Put the sample into a glass vial, cover the vial with aluminum foil, and punch 5-10 holes in the foil. Sealed packaged: Put the sample into a glass vial, and seal the vial and desiccant in an aluminum foil bag. A certain amount of Form CSIII of the present disclosure was stored under different conditions of 25° C./60% RH and 40° C./75% RH with sealed and open packaged. Crystalline form and chemical purity were checked by XRPD and HPLC, respectively. Open packaged: Put the sample into a glass vial, cover the vial with an aluminum foil, and punch 5-10 holes in the foil. Sealed packaged: Put the sample into a glass vial, and seal the vial and desiccant in an aluminum foil bag.

[3] = Flowability by compressibility index (bulk and tapped density)
Method: Compressibility index is usually utilized to evaluate the flowability of powder or granules during the drug product process. Compressibility index test method is as follows: a certain amount of powder was added into a measuring cylinder and bulk volume was recorded. Then the powder was tapped to make it in the tightest state and the tapped volume was recorded. The bulk density (ρ0) and tapped density (ρf) were calculated and compressibility index was calculated according to c=(ρf−ρ0)/ρf.

[4] = Adhesiveness: material sticking to the punch after compression; conditions: about 30 mg, 8 mm round tooling, 10 kN held for 30s
Method: ENERPAC manual tablet press was used for testing. Approximately 30 mg of Form CSV was weighed and then added into the dies of @8 mm round tooling, compressed at 10 kN and held for 30s. The punch was weighed and the amount of material sticking to the punch was calculated. The compression was repeated twice and the maximum amount and average amount of material sticking to the punch during the compression were recorded.

[5] = Physical stability upon mechanical force (tableting, XRPD)
Excerpt: A certain amount of Form CSV was compressed into tablet under different pressures with suitable tableting die. Crystalline form before and after tableting were checked by XRPD.

[6] = 40° C./75% RH, open and sealed package

| SMILES | crystalline state after DVS (XRPD) [1] | chemical purity during storage ([2]; 25° C./60% RH, at least 6 months) | time for which the form is stable ([2]; 25° C./60% RH, sealed and open packaged) | chemical purity during storage ([2]; 40° C./75% RH, at least 2 months) | time for which the form is stable [2, 6] | Bulk density [3] [g/mL] | Tapped density [3] [g/mL] | Flowability ([3]; class by compressibility index, ICH Q4B Annex 13) | average adhesion amount [4] [mg] | weight gain from 0% to 70% RH ([1]; DVS) [%] | Form after storage ([2]; 40° C./75% RH, open packaged, 9 months) | Form after storage ([2]; 40° C./75% RH, sealed packaged, 9 months) | time for which the form is stable ([2]; 60° C./75% RH, open and sealed package) | Form after storage ([2]; 60° C./75% RH, open packaged, 1 month) | Form after storage ([2]; 60° C./75% RH, sealed packaged, 1 month) | Solid form after tableting ([5]; Pressure 5 kN) | Solid form after tableting ([5]; Pressure 10 kN) | Solid form after tableting ([5]; Pressure 20 kN) | weight gain of amorphous from 0 to 70% RH relative to that of Form CSV ([1]; DVS, 0 to 70% RH) | weight gain from 0% to 70% RH ([1]; DVS, listed as prior art amorphous) [%] |
| --- | --- | --- | --- | --- | --- | --- | --- | --- | --- | --- | --- | --- | --- | --- | --- | --- | --- | --- | --- | --- |
| O=C(O)CCCc1cc2cc(Cl)ccc2n1S(=O)(=O)c1ccc2ncsc2c1 [Form CSIII, 5-Chloro-1-[(6-benzothiazolyl)sulfonyl]-1H-indole-2-butanoic acid] | remains unchanged | above 99.5% | at least 6 months | above 99.5% | at least 2 months |  |  |  |  |  |  |  |  |  |  |  |  |  |  |  |
| O=C(O)CCCc1cc2cc(Cl)ccc2n1S(=O)(=O)c1ccc2ncsc2c1 [Form CSV, 5-Chloro-1-[(6-benzothiazolyl)sulfonyl]-1H-indole-2-butanoic acid] | remains unchanged; also recorded: doesn't change |  |  |  | at least 9 months | 0.412 | 0.515 | Fair (16-20) | 0.45 | 0.35 | Form CSV | Form CSV | at least 1 month | Form CSV | Form CSV | Form CSV | Form CSV | Form CSV |  |  |
| O=C(O)CCCc1cc2cc(Cl)ccc2n1S(=O)(=O)c1ccc2ncsc2c1 [amorphous, 5-Chloro-1-[(6-benzothiazolyl)sulfonyl]-1H-indole-2-butanoic acid, reference compound] |  |  |  |  |  |  |  |  |  | 1.18 |  |  |  |  |  |  |  |  | about 3.4 times | 1.18 |

Source: US20240343723A1, “CRYSTAL FORM OF LANIFIBRANOR, PREPARATION METHOD THEREFOR, AND USE THEREOF” (CRYSTAL PHARMACEUTICAL (SUZHOU) CO., LTD., priority 2021, published 2024)
